Consider 36 compounds from patent US8609644B2, “Amino derivatives of androstanes and androstenes as medicaments for cardiovascular disorders” (priority 2006, dated 2013).

Structures are written as SMILES. Counter-ions that a name gives are not always drawn.

One test concerns the target Na+, K+-ATPase (Canis lupus familiaris, UniProt P50997). Kind of test: biochemical. Also on record: species or system dog. The conditions noted are these: Na+, K+-ATPase Inhibition IC50.
On to `C#CC1CC2C3CCC(=O)C3(C)CCC2C2(C)CCC(=NOCCCNC)CC12` (stereo not drawn) [I-cq, (E,Z) 3-(3-N-Methylaminopropoxyimino)-6α-ethynylandrostan-17-one hydrochloride], for which half-maximal inhibition (IC50) required 1.2 µM.
On to `CNCCCON=C1CCC2(C)C(CC(=O)C3C4CCC(=O)C4(C)CCC32)C1` (mixture of isomers) [I-cu, (E,Z) 3-(3-N-Methylaminopropoxyimino)androstane-7,17-dione fumarate], for which the IC50 came to 0.39 µM.
On to `C[C@]12CCC(=NOCCN)C[C@@H]1C(=C(F)F)C[C@@H]1[C@@H]2CC[C@]2(C)C(=O)CC[C@@H]12` (mixture of isomers) [I-bh, (E,Z) 3-(2-Aminoethoxyimino)-6-difluoromethyleneandrostan-17-one hydrochloride], for which the IC50 was 0.19 µM.
Same read-out and setting: to `C=C1C[C@H]2[C@@H]3CCC(=O)[C@@]3(C)CC[C@@H]2[C@@]2(C)CCC(=NOCCCNC)C[C@]12O` (mixture of isomers) [I-ct, (E,Z) 3-(3-N-Methylaminopropoxyimino)-5α-hydroxy-6-methylenandrostan-17-one hydrochloride] belongs 1.4 µM; to `C=CC1CC2C3CCC(=O)C3(C)CCC2C2(C)CCC(=NOCCN)CC12` (stereo not drawn) [I-al, (E,Z) 3-(2-Aminoethoxyimino)-6α-vinylandrostan-17-one hydrochloride], 0.53 µM.
Same read-out and setting: to `C=C1CC2C3CCC(=O)C3(C)CCC2C2(C)CCC(=NOCCCNC)CC12` (mixture of isomers) [I-ck, (E,Z) 3-(3-N-Methylaminopropoxyimino)-6-methyleneandrostane-17-one fumarate] belongs 0.57 µM.

Still in this test, the particulars now being: dog kidney enzyme; read-out: Na+, K+-ATPase Inhibition IC50.
On to `CC12CCC3C(CC(C#N)C4CC(=NOCCN)CCC43C)C1CCC2=O` (mixture of isomers) [I-ac, (E,Z) 3-(2-Aminoethoxyimino)-6α-cyanoandrostan-17-one fumarate], for which the IC50 is 1.1 µM.
Take `COCC1CC2C3CCC(=O)C3(C)CCC2C2(C)CCC(=NOCCN)CC12` (mixture of isomers) [I-ak, (E,Z) 3-(2-Aminoethoxyimino)-6β-methoxymethylandrostan-17-one hydrochloride]: the half-inhibitory concentration (IC50) is 3 µM.
Consider `C=CCON=C1CC2C3CCC(=O)C3(C)CCC2C2(C)CCC(=NOCCN)CC12` (stereo not drawn) [I-ay, (E,Z)-3-(2-Aminoethoxyimino)-6-(E)-allyloxyiminoandrostan-17-one fumarate], for which the IC50 amounted to 43 µM.
On to `CCON=C1CC2C3CCC(=O)C3(C)CCC2C2(C)CCC(=NOCCN)CC12` (mixture of isomers) [I-ax, (E,Z)-3-(2-Aminoethoxyimino)-6-(E)-ethoxyiminoandrostan-17-one hydrochloride], for which the concentration for half-maximal inhibition (IC50) came to 1.7 µM.
Same read-out and setting: to `C[C@]12CCC(=NOCCN)C[C@@H]1CC1(CC1)[C@@H]1[C@@H]2CC[C@]2(C)C(=O)CC[C@@H]12` (mixture of isomers) [I-cb, (E,Z) 3-(2-Aminoethoxyimino)-7-(spirocyclopropane)androstan-17-one hydrochloride] belongs 0.13 µM; to `CC12CCC3C(CC(O[N+](=O)[O-])C4CC(=NOCCN)CCC43C)C1CCC2=O` (single isomer, unassigned) [I-aa, (E,Z) 3-(2-Aminoethoxyimino)-17-oxoandrostane-6α-yl nitrate fumarate], 0.33 µM; to `CC12CCC3C(CC(O[N+](=O)[O-])C4CC(=NOCCN)CCC43C)C1CCC2=O` (single isomer, unassigned) [I-ab, (E,Z) 3-(2-Aminoethoxyimino)-17-oxoandrostane-6β-yl nitrate fumarate], 2.9 µM.
Same read-out and setting: with `C=CCON=C1CC2CC(=NOCCN)CCC2(C)C2CCC3(C)C(=O)CCC3C12` (mixture of isomers) [I-bu, (E,Z)-3-(2-Aminoethoxyimino)-7-(E)-allyloxyiminoandrostan-17-one fumarate] the figure was 3.8 µM; with `CNCCCON=C1CC[C@@]2(C)[C@H](C1)[C@@H](C(N)=O)C[C@@H]1[C@@H]2CC[C@]2(C)C(=O)CC[C@@H]12` (mixture of isomers) [I-cn, (Z,E) 3-(3-N-Methylaminopropoxyimino)-6α-carbamoylandrostan-17-one hydrochloride], 1.9 µM.
`COC(=O)C1CC2C3CCC(=O)C3(C)CCC2C2(C)CCC(=NOCCN)CC12` (mixture of isomers) [I-au, (E,Z) 3-(2-Aminoethoxyimino)-6α-methoxycarbonylandrostan-17-one hydrochloride]: the IC50 is 0.41 µM.
With `COC[C@H]1C[C@@H]2[C@H](CC[C@]3(C)C(=O)CC[C@@H]23)[C@@]2(C)CC/C(=N\OCCN)CC12` (stereo partly drawn) [I-aq, (E) 3-(2-Aminoethoxyimino)-6α-methoxymethylandrostan-17-one hydrochloride], the IC50 was 0.5 µM.
The same measure, in the same setting: with `CC(=O)N[C@H]1C[C@@H]2[C@H](CC[C@]3(C)C(=O)CC[C@@H]23)[C@@]2(C)CCC(=NOCCN)C[C@H]12` (mixture of isomers) [I-bf, (E,Z) 3-(2-Aminoethoxyimino)-6α-acetamidoandrostan-17-one hydrochloride] the figure was 45 µM.
On to `CC12CCC3C(CC(CNC=O)C4CC(=NOCCN)CCC43C)C1CCC2=O` (mixture of isomers) [I-bn, (E,Z) 3-(2-Aminoethoxyimino)-6α-formamidomethylandrostane-17-one hydrochloride], for which the IC50 is 5.1 µM.
Same read-out and setting: to `CC(=O)OCC1CC2C3CCC(=O)C3(C)CCC2C2(C)CCC(=NOCCN)CC12` (stereo not drawn) [I-ap, (E,Z) 3-(2-Aminoethoxyimino)-6α-acetoxymethylandrostan-17-one fumarate] belongs 3 µM; to `C[C@]12CCC(=NOCCN)C[C@@H]1C[C@@H](CO)[C@@H]1[C@@H]2CC[C@]2(C)C(=O)CC[C@@H]12` (mixture of isomers) [I-bz, (E,Z) 3-(2-Aminoethoxyimino)-7α-hydroxymethylandrostane-17-one hydrochloride], 1.1 µM; to `CC12CCC3C(CC(CO)C4CC(=NOCCN)CCC43C)C1CCC2=O` (single isomer, unassigned) [I-aj, (E,Z) 3-(2-Aminoethoxyimino)-6β-hydroxymethylandrostan-17-one hydrochloride], 1.6 µM.
Take `CNCCCON=C1CCC2(C)C3CCC4(C)C(=O)CCC4C3CC3(CC3)C2C1` (mixture of isomers) [I-cp, (E,Z) 3-(3-N-Methylaminopropoxyimino)-6-(spirocyclopropane)androstan-17-one hydrochloride]: the IC50 was found to be 1.3 µM.
Same read-out and setting: to `CNCCCON=C1CC[C@@]2(C)[C@H](C1)C[C@H](CO)[C@@H]1[C@@H]2CC[C@]2(C)C(=O)CC[C@@H]12` (mixture of isomers) [I-cw, (E,Z) 3-(3-N-Methylaminopropoxyimino)-7β-hydroxymethylandrostane-17-one hydrochloride] belongs 2.3 µM; to `CC12CCC3C(CC4(OCCO4)C4CC(=NOCCN)CCC34C)C1CCC2=O` (mixture of isomers) [I-ag, (E,Z) 3-(2-Aminoethoxyimino)-6-(2-spiro-1,3-dioxolane)androstane-17-one fumarate], 5.4 µM; to `C[C@]12CCC(=NOCCN)C[C@@H]1[C@]1(CO1)C[C@@H]1[C@@H]2CC[C@]2(C)C(=O)CC[C@@H]12` (mixture of isomers) [I-bb, (E,Z)-3-(2-Aminoethoxyimino)androstane-6(S)-(spiro-2′-oxirane)-17-one hydrochloride], 0.87 µM.

The same test, now with this note: read-out: Na+, K+-ATPase Inhibition IC50.
Take `C=C1C[C@@H]2[C@H](CC[C@]3(C)C(=O)CC[C@@H]23)[C@@]2(C)CC[C@@H]([S@+]([O-])CCCN)CC12` (stereo partly drawn) [I-ec, 3α-[(R)-3-Aminopropylsulfinyl]-6-methyleneandrostane-17-one fumarate]: the IC50 is 80 µM.
As to `C[C@]12CCC(=NOCCN)CC1C[C@H](CO)[C@@H]1[C@@H]2CC[C@]2(C)C(=O)CC[C@@H]12` (stereo partly drawn) [I-ca, (E,Z) 3-(2-Aminoethoxyimino)-7β-hydroxymethylandrostane-17-one hydrochloride], the IC50 was determined as 0.91 µM.
On to `C[C@]12CC[C@H](/C=C\CCN)CC1/C(=N/O)C[C@@H]1[C@@H]2CC[C@]2(C)C(=O)CC[C@@H]12` (stereo partly drawn) [I-de, 3β-(4-Aminobut-1-(Z)-enyl)-6-(E)-hydroxyiminoandrostane-17-one fumarate], for which the IC50 was determined as 1.2 µM.
Consider `C[C@]12CC/C(=N/OCCN)CC1[C@@H](C(N)=O)C[C@@H]1[C@@H]2CC[C@]2(C)C(=O)CC[C@@H]12` (stereo partly drawn) [I-as, (Z) 3-(2-Aminoethoxyimino)-6α-carbamoylandrostan-17-one hydrochloride], for which the 50% inhibitory concentration (IC50) stood at 0.63 µM.
On to `CNCCCON=C1CC[C@]2(C)[C@H]3CC[C@]4(C)C(=O)CC[C@H]4[C@@H]3CC(=NOC)[C@@]2(O)C1` [I-cs, (E,Z) 3-(3-N-Methylaminopropoxyimino)-5α-hydroxy-6-(E)-methoxyimino-androstane-17-one fumarate], for which the concentration for half-maximal inhibition (IC50) was determined as 1.1 µM.
Consider `C=C1C[C@@H]2[C@H](CC[C@]3(C)C(=O)CC[C@@H]23)[C@@]2(C)CC[C@@H]([S@@+]([O-])CCCN)CC12` (stereo partly drawn) [I-eb, 3α-[(S)-3-Aminopropylsulfinyl]-6-methyleneandrostane-17-one fumarate], for which the 50% inhibitory concentration (IC50) came out at 7.2 µM.
As for `CNCCCON=C1CC[C@@]2(C)C(C1)[C@@H](CO)C(=O)[C@@H]1[C@@H]2CC[C@]2(C)C(=O)CC[C@@H]12` (stereo partly drawn) [I-ei, (E,Z) 3-(3-N-Methylaminopropoxyimino)-6α-hydroxymethylandrostane-7,17-dione fumarate], the concentration for half-maximal inhibition (IC50) amounted to 0.044 µM.
Still for that read-out and setting: to `C=C1C[C@@H]2[C@H](CC[C@]3(C)C(=O)CC[C@@H]23)[C@@]2(C)CCC(=NOCCN)CC12` (stereo partly drawn) [I-ah, (E,Z) 3-(2-Aminoethoxyimino)-6-methyleneandrostan-17-one hydrochloride] belongs 0.042 µM; to `C[C@]12CCC(=NOCCN)CC1[C@@H](C=NO)C[C@@H]1[C@@H]2CC[C@]2(C)C(=O)CC[C@@H]12` (stereo partly drawn) [I-an, 3-(E,Z)-(2-Aminoethoxyimino)-17-oxoandrostane-6α-carbaldehyde (E,Z)-oxime fumarate], 0.39 µM; to `CC(C)(CN)ON=C1CC[C@@]2(C)C(C1)/C(=N/O)C[C@@H]1[C@@H]2CC[C@]2(C)C(=O)CC[C@@H]12` (stereo partly drawn) [I-eo, (E,Z) 3-(3-Amino-2-methyl-2-propoxyimino)-6-(E)-hydroxyiminoandrostane-17-one hydrochloride], 0.02 µM.
